Measurements as given in patent publication US6159940A, “Method for modulating hemopoiesis” (Immunotech Developments Inc., priority 1999, dated 2000).

Legend:
[1] = Effect on cardio-vascular and respiratory systems, guinea pigs; type: in vivo
Method: The effects of H-Ile-Glu-Trp-OH on ECG and arterial pressure were studied in guinea pigs and cats.
The test was conducted in 20 guinea pigs.

[2] = Allergenicity study; type: in vivo, rabbits; conditions: subcutaneous 0.01% solution for 5 days
Method: The study was performed in 12 rabbits, who received subcutaneous injections of 0.01% H-Ile-Glu-Trp-OH solution for 5 days. The control animals were injected with horse serum.

[3] = test system: CFU-S; experiment: Spleen colony formation from RAMBS-treated bone marrow in lethally irradiated mice; type: in vivo, (CBA×C57BL)F1 female mice
Text: (CBA×C57BL)F1 female mice (n=2500), 2-months old, weighing about 20 g, were used in the experiment.
As is known, there is a close relationship between T-cells and hemopoietic progenitors. It was shown that, along with colony-forming units of spleen (CFU-S), thymocytes participate in colony formation of spleens of irradiated mice by controlling proliferation of the hemopoietic progenitor cells. The fact was established in a test system, which allowed a selective removal of accessory T-cells from bone marrow with the help of rabbit antimouse brain antiserum (RAMBS) and their substitution with other factors. Aliquots (0.1 ml) of bone marrow suspension (2×10^7 cells), RAMBS, and medium 199 were mixed and incubated for 1 hour at 37° C. Then the cells were washed with centrifuging, resuspended and injected to lethally irradiated mice.
According to the aforesaid scheme, instead of thymocytes mice received the peptide, H-Ile-Glu-Trp-OH injections 30 minutes before the injections of RAMBS-treated bone marrow suspension.

[4] = test system: hemoglobin, erythrocytes; experiment: Erythropoiesis in irradiated mice (4 Gy); type: in vivo; conditions: for Hemoglobin Content in blood: 4 Gy
Text: The effect of the peptide on erythropoiesis in irradiated mice (4 Gy) was also studied. The mice were irradiated and treated with the peptide as in Example 7.

[5] = test system: nucleated blood cells; experiment: Karyocyte and lymphocyte counts in blood of irradiated mice (4 Gy), scheme 2; type: in vivo
Method: Irradiated mice (4 Gy) received intramuscular injections of the peptide in the dose of 10 μg/kg according to 2 schemes.
b) According to scheme 2, the peptide injections were made starting from the 3rd day after the irradiation, at the same time of maximum depletion of the pool of mature nucleated cells and the bone marrow. The groups of mice were formed in the same way as in the previous scheme. […] Tables 9 and 10 present the data on karyocyte and lymphocyte counts in blood (per 1 mm^3) of mice treated according to scheme 2.

## H-Ile-Glu-Trp-OH
[1]
  ECG readings and arterial pressure: No significant difference from control
[2]
  reaction on the injection sites: No macroscopic reaction
[3]; RAMBS-treated bone marrow + preparation, lethally irradiated mice
  Average Colony Count: 6,3 ± 0,4
[3]; mouse, in vivo
  increase of colony yields as compared to RAMBS-treated bone marrow: 2-3 times
[4]; 4 Gy mice
  Erythrocyte counts, test versus control groups: did not differ
[4]; 4 Gy treated mice (control: by day 14)
  restoration of hemoglobin level: become normal by the 11th day
[4]; scheme 2, 1 Time, Day 7
  Hemoglobin Content in blood: 9.4 ± 0.8 r/dl
[4]; scheme 2, 1 Time, Day 11
  Hemoglobin Content in blood: 12.6 ± 0.1 r/dl
[4]; scheme 2, 1 Time, Day 14
  Hemoglobin Content in blood: 11.8 ± 0.5 r/dl
[4]; scheme 2, 1 Time, Day 18
  Hemoglobin Content in blood: 12.1 ± 0.1 r/dl
[4]; scheme 2, 1 Time, Day 21
  Hemoglobin Content in blood: 12.1 ± 0.4 r/dl
[4]; scheme 2, 2 Times, Day 7
  Hemoglobin Content in blood: 9.6 ± 0.4 r/dl
[4]; scheme 2, 2 Times, Day 11
  Hemoglobin Content in blood: 12.0 ± 0.1 r/dl
[4]; scheme 2, 2 Times, Day 14
  Hemoglobin Content in blood: 10.8 ± 0.8 r/dl
[4]; scheme 2, 2 Times, Day 18
  Hemoglobin Content in blood: 11.5 ± 0.6 r/dl
[4]; scheme 2, 2 Times, Day 21
  Hemoglobin Content in blood: 11.7 ± 0.6 r/dl
[4]; scheme 2, 3 Times, Day 7
  Hemoglobin Content in blood: 10.15 ± 0.8 r/dl
[4]; scheme 2, 3 Times, Day 11
  Hemoglobin Content in blood: 11.9 ± 0.4 r/dl
[4]; scheme 2, 3 Times, Day 14
  Hemoglobin Content in blood: 12.1 ± 0.2 r/dl
[4]; scheme 2, 3 Times, Day 18
  Hemoglobin Content in blood: 11.7 ± 0.2 r/dl
[4]; scheme 2, 3 Times, Day 21
  Hemoglobin Content in blood: 11.9 ± 0.3 r/dl
[4]; scheme 2, 4 Times, Day 7
  Hemoglobin Content in blood: 14.4 ± 0.9 r/dl
[4]; scheme 2, 4 Times, Day 11
  Hemoglobin Content in blood: 12.2 ± 0.1 r/dl
[4]; scheme 2, 4 Times, Day 14
  Hemoglobin Content in blood: 12.0 ± 0.2 r/dl
[4]; scheme 2, 4 Times, Day 18
  Hemoglobin Content in blood: 11.7 ± 0.4 r/dl
[4]; scheme 2, 4 Times, Day 21
  Hemoglobin Content in blood: 12.0 ± 0.6 r/dl
[5]; scheme 2, 1 Time, Day 7
  Karyocyte Count in Blood: 1.64 ± 0.2 × 10^3
  Lymphocyte in Blood (Absolute): 232
  Lymphocyte in Blood, %: 45.1 ± 3.9%
[5]; scheme 2, 1 Time, Day 11
  Karyocyte Count in Blood: 1.88 ± 0.3 × 10^3
  Lymphocyte in Blood (Absolute): 1365
  Lymphocyte in Blood, %: 49.2 ± 3.8%
[5]; scheme 2, 1 Time, Day 14
  Karyocyte Count in Blood: 1.50 ± 0.2 × 10^3
  Lymphocyte in Blood (Absolute): 1118
  Lymphocyte in Blood, %: 43.3 ± 3.2%
[5]; scheme 2, 1 Time, Day 18
  Karyocyte Count in Blood: 2.62 ± 0.2 × 10^3
  Lymphocyte in Blood (Absolute): 2412
  Lymphocyte in Blood, %: 30.6 ± 2.9%
[5]; scheme 2, 1 Time, Day 21
  Karyocyte Count in Blood: 1.63 ± 0.2 × 10^3
  Lymphocyte in Blood (Absolute): 743
  Lymphocyte in Blood, %: 45.6 ± 3.9%
[5]; scheme 2, 2 Times, Day 7
  Karyocyte Count in Blood: 1.33 ± 0.2 × 10^3
  Lymphocyte in Blood (Absolute): 701
  Lymphocyte in Blood, %: 52.7 ± 2.9%
[5]; scheme 2, 2 Times, Day 11
  Karyocyte Count in Blood: 2.03 ± 0.3 × 10^3
  Lymphocyte in Blood (Absolute): 915
  Lymphocyte in Blood, %: 45.1 ± 5.4%
[5]; scheme 2, 2 Times, Day 14
  Karyocyte Count in Blood: 1.60 ± 0.2 × 10^3
  Lymphocyte in Blood (Absolute): 619
  Lymphocyte in Blood, %: 38.8 ± 2.2%
[5]; scheme 2, 2 Times, Day 18
  Karyocyte Count in Blood: 1.67 ± 0.1 × 10^3
  Lymphocyte in Blood (Absolute): 703
  Lymphocyte in Blood, %: 42.1 ± 1.4%
[5]; scheme 2, 2 Times, Day 21
  Karyocyte Count in Blood: 2.70 ± 0.2 × 10^3
  Lymphocyte in Blood (Absolute): 1220
  Lymphocyte in Blood, %: 45.2 ± 2.3%
[5]; scheme 2, 3 Times, Day 7
  Karyocyte Count in Blood: 2.22 ± 0.3 × 10^3
  Lymphocyte in Blood (Absolute): 968
  Lymphocyte in Blood, %: 43.6 ± 2.1%
[5]; scheme 2, 3 Times, Day 11
  Karyocyte Count in Blood: 1.94 ± 0.2 × 10^3
  Lymphocyte in Blood (Absolute): 892
  Lymphocyte in Blood, %: 46.3 ± 5.4%
[5]; scheme 2, 3 Times, Day 14
  Karyocyte Count in Blood: 1.50 ± 0.2 × 10^3
  Lymphocyte in Blood (Absolute): 744
  Lymphocyte in Blood, %: 47.7 ± 6.1%
[5]; scheme 2, 3 Times, Day 18
  Karyocyte Count in Blood: 2.07 ± 0.2 × 10^3
  Lymphocyte in Blood (Absolute): 7353
  Lymphocyte in Blood, %: 35.5 ± 1.4%
[5]; scheme 2, 3 Times, Day 21
  Karyocyte Count in Blood: 2.45 ± 0.4 × 10^3
  Lymphocyte in Blood (Absolute): 1289
  Lymphocyte in Blood, %: 52.5 ± 3.2%
[5]; scheme 2, 4 Times, Day 7
  Karyocyte Count in Blood: 2.71 ± 0.4 × 10^3
  Lymphocyte in Blood (Absolute): 1231
  Lymphocyte in Blood, %: 45.6 ± 2.5%
[5]; scheme 2, 4 Times, Day 11
  Karyocyte Count in Blood: 3.03 ± 0.5 × 10^3
  Lymphocyte in Blood (Absolute): 1406
  Lymphocyte in Blood, %: 42.6 ± 3.6%
[5]; scheme 2, 4 Times, Day 14
  Karyocyte Count in Blood: 1.17 ± 0.1 × 10^3
  Lymphocyte in Blood (Absolute): 515
  Lymphocyte in Blood, %: 44.0 ± 3.1%
[5]; scheme 2, 4 Times, Day 18
  Karyocyte Count in Blood: 2.48 ± 0.1 × 10^3
  Lymphocyte in Blood (Absolute): 1116
  Lymphocyte in Blood, %: 45.1 ± 1.8%
[5]; scheme 2, 4 Times, Day 21
  Karyocyte Count in Blood: 1.66 ± 0.2 × 10^3
  Lymphocyte in Blood (Absolute): 789
  Lymphocyte in Blood, %: 47.5 ± 5.3%
